Data: patent publication US10119972B2, “Reactive labelling compounds and uses thereof” (Academia Sinica, priority 2014, dated 2018)
“Also recorded” adds a separate entry of the source.

Key:
CL1-5 cells = experiment: Dual fluorescence labeling in cells (SPAAC with CuAAC), confocal microscopy; assay type: cell-based; conditions: CL1-5 cells with Ac4ManNAl and Ac4GlcNAz; 100 μM coumOCT, 0.1 μM AzBOCEt
Description: A dual-labeling experiment was performed using SPAAC in combination with CuAAC for the concurrent fluorescence labeling of two different metabolically incorporated glycoconjugates. Peracetylated N-acetylmannosamine (Ac4ManNAc) and peracetylated N-acetylglucosamine (Ac4GlcNAc) were employed as the control sugars. ManNAc is converted metabolically to sialic acid that is found as a terminal monosaccharide of glycoproteins and glycolipids in cell, whereas GlcNAz is an internal monosaccharide that abundant in the N- and O-linked glycans produced in the endoplasmic reticulum and Golgi. CL1-5 cells were incubated in the presence of both alkyne-containing sugar (Ac4ManNAl) and azido-containing sugar (Ac4GlcNAz) for three days. The cells were stained by SPAAC with coumOCT (for azido sugars), followed by CuAAC with AzBOCEt^6j (for alkynyl sugars), and investigated by confocal microscopy (FIG. 24).
(A) Illustration of the cell labeling experiments using Ac4ManNAl, Ac4GlcNAz, 101 and AzBOCEt. CL1-5 cells were incubated with 100 μM of Ac4ManNAl and Ac4GlcNAz or control sugars (Ac4ManNAc and Ac4GlcNAc) for 3 days, which were treated with 100 μM of probe 101 for 0.5 h under SPAAC conditions, and then incubated with 0.1 μM of AzBOCEt for 1 h under CuAAC conditions. (B) Dual fluorescence imaging in CL1-5 cells. […]

[1] = Stability in presence of 3-mercaptopropionic acid by 1H-NMR; assay type: physicochemical; conditions: 25 mM in CDCl3 with 3-mercaptopropionic acid (32 mM), 25° C., 24 h
Description: A potential problematic side reaction of cyclooctynes is the addition with proteinic or endogenous thiols to the corresponding vinyl sulfides. To test whether potential non-specific stainings of 101 and the corresponding triazole 111 may occur due to additions of the SH groups to the triple bond or double bond by proteinic or endogenous thiols, the experiment was performed by incubation of 101 and 111 with 3-mercaptopropionic acid in CDCl3 (FIGS. 25 and 26).
A solution of compound 101 and compound 111 (25 mM in CDCl3) was incubated with a solution of 3-mercaptopropionic acid (32 mM in CDCl3) at room temperature (25° C.).
FIG. 25 show ^1H-NMR spectrum in CDCl3 of compound 101 and 3-mercaptopropionic acid alone, and ^1H-NMR spectrum of compound 101 was treated with 3-mercaptopropionic acid at 25° C. for 0 h, 2 h and 24 h.

[2] = Absorption and fluorescence spectroscopy under simulated physiological conditions; assay type: physicochemical; conditions: for Absorption (λmax, nm) / Stokes shift / Emission (λmax, nm) / ε (M^−1cm^−1), extinction coefficient / Φf, fluorescence quantum yield: PBS buffer containing 10% DMSO, pH 7.4; for Emission (λmax, nm): excitation at 330 nm; for ε (M^−1cm^−1), extinction coefficient: measured at 330 nm; for Φf, fluorescence quantum yield: quinine sulfate (Φf = 0.54 ± 0.03) as standard; for increase in quantum yield compared to unreacted 101: triazole product vs 101
Description: Formation of triazoles 111 and 112 were accompanied by a significant increase in fluorescence intensity with a large Stokes shift into a standard range for coumarin emission (FIG. 16a).
FIG. 16 describes (a) Absorption and Fluorescence emission spectra (λex=330 nm) of 101 (black), 111 (blue) and 112 (red) (45 μM, PBS buffer containing 10% DMSO, pH 7.4). (b) Time course of normalized fluorescence intensity at 435 nm (λex=330 nm) for the ligation reaction of 101 (30 μM) with N-azidoacetylmannosamine (30 μM) in PBS buffer containing 10% DMSO.

Row | Structure (SMILES) | localization of labeled glycoconjugates (CL1-5 cells) | thiol-yne or thiol-ene addition / stability in the presence of thiols [1] | Absorption (λmax, nm) [2] [nm] | Stokes shift [2] [cm⁻¹] | Emission (λmax, nm) [2] [nm] | ε (M^−1cm^−1), extinction coefficient [2] [M⁻¹ cm⁻¹] | Φf, fluorescence quantum yield [2] | increase in quantum yield compared to unreacted 101 [2] [fold]
1 | CCOC(=O)C1=C(C)C2=C(c3cc(N=[N+]=[N-])ccc3OC)c3c(C)c(C(=O)OCC)c(C)n3[B-](F)(F)[N+]2=C1C [Az10, 8-(5-Azido-2-methoxyphenyl)-2,6-diethoxycarbonyl-4,4-difluoro-1,3,5,7-tetramethyl-4-bora-3a,4a-diaza-s-indacene] | observed clearly on the cell surface and partially in the cytosol |  |  |  |  |  |  | 
2 | O=c1ccc2cc3c(cc2o1)-c1nnn(Cc2ccccc2)c1CCCC3 [Compound 111, 10-Benzyl-6,7,8,9-tetrahydro-cyclooctatriazolo[5,4-g]chromen-2(2H)-one] |  | inactive; also recorded: high stability | 328 | 7500 | 435 | 12200 | 0.23 | 20
3 | O=C(Cn1nnc2c1CCCCc1cc3ccc(=O)oc3cc1-2)NC1C(O)OC(CO)[C@@H](O)C1O (stereo partly drawn) [Compound 112, N-[2-(11-Oxo-4,6,7,11-tetrahydrochromeno[7′,6′:3,4]cycloocta[1,2-d][1,2,3]triazol-3(5H)-yl)]acetamido-2-deoxy-α,β-D-mannopyranose] |  |  | 330 | 7320 | 435 | 10800 | 0.21 | 20
